Counter-ions that a name gives are not always drawn. Like-named read-outs stand apart in the source and are kept apart here.
Legend:
[1] = biological target: T1, human PI3Kα protein (Homo sapiens, UniProt P42336); assay: PI3Kα enzyme assay (ADP-Glo); type: biochemical; conditions: read-out: PI3Kα enzyme inhibitory activity
T1 construct: purchased Carna Biosciences, Inc; host or cells: baculovirus expression system
Procedure, shortened: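 Biotinylated human PI3Kα (baculovirus-expressed, 4.5 nmol/L) pre-incubated 15 min with compound in Tris-HCl pH 7.5, MgCl2, BSA; reaction 60 min at 25° C with 50 μmol/L PIP2 and 100 μmol/L ATP final. ADP quantified by ADP-Glo luminescence; IC50 calculated.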

[2] = biological target: T2, GST fusion human ERK2 protein (Homo sapiens, UniProt P28482); assay: ERK2 enzyme assay (1); type: biochemical; conditions: read-out: ERK2 enzyme inhibitory activity (1)
T2 construct: purchased Carna Biosciences, Inc; host or cells: E. coli expression system
Procedure, shortened: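 Enzyme (2.5 nmol/L, E. coli-expressed) preincubated with compound 15 min at room temperature in HEPES/MgCl2/DTT/Brij35 buffer, pH 7.5; reaction with 4.25 μmol/L FL-Peptide 8 and 43.1 μmol/L ATP for 120 min at 25 °C. Phosphorylated peptide fraction quantified by mobility-shift separation after EDTA stop; IC50 calculated.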

[3] = 4.5 nmol/L PI3Kα, PIP2 50 μmol/L, ATP 100 μmol/L
[4] = 2.5 nmol/L ERK2, ATP 43.1 μmol/L

T1 sequence (P42336 whole entry): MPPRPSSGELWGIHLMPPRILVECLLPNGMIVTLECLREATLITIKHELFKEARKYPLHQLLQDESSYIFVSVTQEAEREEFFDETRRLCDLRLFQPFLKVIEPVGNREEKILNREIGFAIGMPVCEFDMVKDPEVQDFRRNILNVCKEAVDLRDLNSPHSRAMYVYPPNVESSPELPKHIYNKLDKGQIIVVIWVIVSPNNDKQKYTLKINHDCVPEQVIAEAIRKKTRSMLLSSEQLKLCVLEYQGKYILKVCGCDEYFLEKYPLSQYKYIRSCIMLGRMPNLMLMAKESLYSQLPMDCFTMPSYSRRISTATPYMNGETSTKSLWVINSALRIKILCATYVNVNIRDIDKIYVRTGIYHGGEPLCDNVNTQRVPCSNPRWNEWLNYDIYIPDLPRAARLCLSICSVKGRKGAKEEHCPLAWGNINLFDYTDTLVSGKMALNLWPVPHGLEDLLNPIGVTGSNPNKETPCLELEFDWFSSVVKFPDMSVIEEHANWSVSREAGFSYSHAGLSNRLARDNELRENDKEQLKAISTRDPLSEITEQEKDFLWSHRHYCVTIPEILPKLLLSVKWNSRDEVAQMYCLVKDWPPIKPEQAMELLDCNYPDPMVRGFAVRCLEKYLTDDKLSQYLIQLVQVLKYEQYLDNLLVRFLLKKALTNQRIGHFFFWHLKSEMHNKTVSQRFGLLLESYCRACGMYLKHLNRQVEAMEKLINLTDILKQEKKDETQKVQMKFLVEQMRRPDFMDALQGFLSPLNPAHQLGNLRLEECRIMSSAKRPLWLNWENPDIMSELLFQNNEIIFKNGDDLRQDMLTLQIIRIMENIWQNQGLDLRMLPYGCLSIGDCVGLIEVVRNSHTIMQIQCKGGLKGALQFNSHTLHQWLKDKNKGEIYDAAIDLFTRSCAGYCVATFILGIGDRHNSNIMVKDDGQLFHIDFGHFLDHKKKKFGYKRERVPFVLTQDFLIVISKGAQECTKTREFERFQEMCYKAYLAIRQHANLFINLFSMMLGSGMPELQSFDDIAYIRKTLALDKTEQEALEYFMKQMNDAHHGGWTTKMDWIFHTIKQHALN
T1 sequence (P27986 whole entry partner): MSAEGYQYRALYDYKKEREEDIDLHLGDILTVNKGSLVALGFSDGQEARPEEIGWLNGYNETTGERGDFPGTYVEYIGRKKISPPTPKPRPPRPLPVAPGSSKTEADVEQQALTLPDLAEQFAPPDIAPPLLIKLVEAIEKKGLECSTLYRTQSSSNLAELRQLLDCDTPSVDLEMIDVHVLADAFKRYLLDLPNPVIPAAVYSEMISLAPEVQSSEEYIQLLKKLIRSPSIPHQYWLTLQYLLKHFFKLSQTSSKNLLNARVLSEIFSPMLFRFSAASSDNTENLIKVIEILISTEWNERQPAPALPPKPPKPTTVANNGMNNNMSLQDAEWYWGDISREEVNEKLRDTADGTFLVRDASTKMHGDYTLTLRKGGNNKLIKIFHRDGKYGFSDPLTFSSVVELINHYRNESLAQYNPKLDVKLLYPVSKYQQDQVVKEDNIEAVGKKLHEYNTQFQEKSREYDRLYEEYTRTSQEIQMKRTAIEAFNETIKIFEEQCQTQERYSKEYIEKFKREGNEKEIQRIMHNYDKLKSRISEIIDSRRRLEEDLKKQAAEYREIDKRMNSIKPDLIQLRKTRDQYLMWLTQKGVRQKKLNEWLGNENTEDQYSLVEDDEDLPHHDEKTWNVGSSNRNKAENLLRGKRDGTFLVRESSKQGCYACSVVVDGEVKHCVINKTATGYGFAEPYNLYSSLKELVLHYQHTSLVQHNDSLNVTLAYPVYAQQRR
T2 sequence (P28482 whole entry, the tested form may be a part): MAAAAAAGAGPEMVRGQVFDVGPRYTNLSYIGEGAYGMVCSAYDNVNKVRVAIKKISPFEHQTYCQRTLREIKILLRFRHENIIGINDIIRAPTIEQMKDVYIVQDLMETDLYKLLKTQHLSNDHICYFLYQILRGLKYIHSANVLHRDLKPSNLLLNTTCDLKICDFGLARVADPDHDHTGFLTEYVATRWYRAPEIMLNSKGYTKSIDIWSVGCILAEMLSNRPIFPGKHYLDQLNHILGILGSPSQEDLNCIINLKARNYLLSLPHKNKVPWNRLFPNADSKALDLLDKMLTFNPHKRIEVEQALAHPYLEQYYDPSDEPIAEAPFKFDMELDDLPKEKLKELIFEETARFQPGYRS

Structure (SMILES)	IC50 [1]	IC50 ([2]; ERK2 enzyme assay (1))	IC50 [1, 3]	IC50 [2, 4]
CC(C)c1cnnc(Nc2ccc3ncc(-c4cnn(CCCN5CCC5)c4)cc3n2)c1 [Example 0371]	< 1000 nM	< 1000 nM	–	–
Cn1cc(-c2cnc3ccc(Nc4nnc(S(=O)(=O)NCc5ccccc5)s4)nc3c2)cn1 [Example 0192, N-benzyl-5-((7-(1-methyl-1H-pyrazol-4-yl)-1,5-naphthyridin-2-yl)amino)-1,3,4-thiadiazole-2-sulfonamide sodium salt]	–	–	< 1000 nM	< 1000 nM
CC(C)c1cnnc(Nc2ccc3ncc(Nc4cncnc4)cc3n2)c1 [Example 0387, N^2-(5-isopropylpyridazin-3-yl)-N^7-(pyrimidin-5-yl)-1,5-naphthyridine-2,7-diamine]	< 1000 nM	< 1000 nM	–	–
c1ccc(Nc2cnc3ccc(Nc4nnc(C5CCCC5)s4)nc3c2)nc1 [Example 0206]	10000 to 50000 nM	< 1000 nM	–	–
CCOC(=O)C1CCN(c2cnc3ccc(Nc4nnc(C5CCCC5)s4)nc3c2)CC1 [Example 0057]	–	–	10000 to 50000 nM	1000 to 10000 nM
O=S(=O)(Nc1ccccc1)c1nnc(Nc2ccc3ncc(-c4cnn(CCN5CCNCC5)c4)cc3n2)s1 [Example 0181, N-phenyl-5-((7-(1-(2-(piperazin-1-yl)ethyl)-1H-pyrazol-4-yl)-1,5-naphthyridin-2-yl)amino)-1,3,4-thiadiazole-2-sulfonamide hydrochloride]	–	–	< 1000 nM	< 1000 nM
CC(=O)N1CCC(Nc2cnc3ccc(Nc4nnc(C5CCCC5)s4)nc3c2)CC1 [Example 0063]	–	–	< 1000 nM	< 1000 nM
COc1ccc(-c2cnc3ccc(Nc4ncc(C)s4)nc3c2)cc1OC [Example 0022, N-(7-(3,4-dimethoxyphenyl)-1,5-naphthyridin-2-yl)-5-methylthiazole-2-amine]	–	–	1000 to 10000 nM	10000 to 50000 nM
c1nnc(Nc2ccc3ncc(Nc4cn[nH]c4)cc3n2)s1 [Example 0186, N^7-(1H-pyrazol-4-yl)-N^2-(1,3,4-thiadiazol-2-yl)-1,5-naphthyridine-2,7-diamine]	–	–	< 1000 nM	< 1000 nM
CC(C)c1cnnc(Nc2ccc3ncc(N4CCOCC4)cc3n2)c1 [Example 0392, N-(5-isopropylpyridazin-3-yl)-7-morpholino-1,5-naphthyridine-2-amine]	< 1000 nM	< 1000 nM	–	–
c1n[nH]cc1-c1cnc2ccc(Nc3nnc(C4CCCC4)s3)nc2c1 [Example 0201]	1000 to 10000 nM	< 1000 nM	–	–
O=C(c1ccc(Nc2cnc3ccc(Nc4nnc(C5CCCC5)s4)nc3c2)cc1)N1CCOCC1 [Example 0104]	–	–	1000 to 10000 nM	< 1000 nM
OC1CCN(c2cnc3ccc(Nc4nnc(C5CCCC5)s4)nc3c2)CC1 [Example 0051]	–	–	1000 to 10000 nM	< 1000 nM
CC(C)c1nnc(Nc2ccc3nccc(-c4ccc(C(N)=O)cc4)c3n2)s1 [Example 0288]	< 1000 nM	< 1000 nM	–	–
CC(C)c1cnc(Nc2ccc3ncc(-c4cnn(CCCN5CCCC5)c4)cc3n2)s1 [Example 0119]	–	–	< 1000 nM	< 1000 nM
CCc1cnnc(Nc2ccc3ncc(-c4cnn(CCCN5CCOCC5)c4)cc3n2)c1 [Example 0178, N-(5-ethylpyridazin-3-yl)-7-(1-(3-morpholinopropyl)-1H-pyrazol-4-yl)-1,5-naphthyridine-2-amine]	–	–	< 1000 nM	< 1000 nM
CC(C)c1nnc(Nc2ccc3ncc(-c4cn(C)nc4C(C)C)cc3n2)s1 [Example 0125]	–	–	< 1000 nM	< 1000 nM
CC(C)c1cnc(Nc2ccc3ncc(-c4cnn(C)c4)cc3n2)s1 [Example 0123, 5-isopropyl-N-(7-(1-methyl-1H-pyrazol-4-yl)-1,5-naphthyridin-2-yl)thiazole-2-amine]	–	–	< 1000 nM	< 1000 nM
Cn1cc(-c2cnc3ccc(Nc4ccc(NS(C)(=O)=O)nn4)nc3c2)cn1 [Example 0409]	< 1000 nM	1000 to 10000 nM	–	–
Cn1cc(-c2cnc3ccc(Nc4ccc(Cl)nn4)nc3c2)cn1 [Example 0152]	–	–	1000 to 10000 nM	< 1000 nM
O[C@H]1CCN(c2cnc3ccc(Nc4nnc(C5CCCC5)s4)nc3c2)C1 [Example 0314]	1000 to 10000 nM	< 1000 nM	–	–
c1nnc(Nc2ccc3ncc(N4CCOCC4)cc3n2)s1 [Example 0003, N-(7-morpholino-1,5-naphthyridin-2-yl)-1,3,4-thiadiazole-2-amine]	–	–	1000 to 10000 nM	< 1000 nM

Structure (SMILES)	IC50 [1]	IC50 ([2]; ERK2 enzyme assay (1))	IC50 [1, 3]	IC50 [2, 4]
Cn1cc(-c2cnc3ccc(Nc4nnc(NS(C)(=O)=O)s4)nc3c2)cn1 [Example 0187, N-(5-((7-(1-methyl-1H-pyrazol-4-yl)-1,5-naphthyridin-2-yl)amino)-1,3,4-thiadiazol-2-yl)methane sulfonamide]	–	–	< 1000 nM	< 1000 nM
c1cnn(-c2cncc(Nc3cnc4ccc(Nc5nnc(C6CCCC6)s5)nc4c3)c2)c1 [Example 0073]	–	–	< 1000 nM	< 1000 nM
Cc1ccncc1Nc1cnc2ccc(Nc3nnc(C4CCCC4)s3)nc2c1 [Example 0079]	–	–	1000 to 10000 nM	< 1000 nM
CC(C)c1nnc(Nc2ccc3nccc(Nc4cccnc4)c3n2)s1 [Example 0006]	–	–	< 1000 nM	< 1000 nM
CC(C)c1nnc(Nc2ccc3nccc(-c4cnn(C)c4)c3n2)s1 [Example 0273]	< 1000 nM	< 1000 nM	–	–
c1nc2ccc(Nc3nnc(CC4CC4)s3)nc2cc1-c1cnn(CCCN2CCCC2)c1 [Example 0256, 5-(Cyclopropylmethyl)-N-(7-(1-(3-(pyrrolidin-1-yl)propyl)-1H-pyrazol-4-yl)-1,5-naphthyridin-2-yl)-1,3,4-thiadiazole-2-amine]	< 1000 nM	< 1000 nM	–	–
CC(C)c1cnnc(Nc2ccc3ncc(-c4cn(C)nc4CO[Si](C)(C)C(C)(C)C)cc3n2)c1 [Example 0393, 7-(3-(((tert-butyldimethylsilyl)oxy)methyl)-1-methyl-1H-pyrazol-4-yl)-N-(5-isopropylpyridazin-3-yl)-1,5-naphthyridine-2-amine]	1000 to 10000 nM	< 1000 nM	–	–
COC[C@H]1CCCN1c1cnc2ccc(Nc3nnc(C4CCCC4)s3)nc2c1 [Example 0062]	–	–	1000 to 10000 nM	< 1000 nM
CC(=O)N1CCN(c2cnc3ccc(Nc4nnc(C5CCCC5)s4)nc3c2)CC1 [Example 0048]	–	–	1000 to 10000 nM	< 1000 nM
CCC(C)(C)c1cnnc(Nc2ccc3ncc(-c4cnn(CCCN5CCCC5)c4)cc3n2)c1 [Example 0296]	< 1000 nM	< 1000 nM	–	–
CC(C)c1nnc(Nc2ccc3nccc(-c4cccnc4)c3n2)s1 [Example 0268, 5-isopropyl-N-(8-(pyridin-3-yl)-1,5-naphthyridin-2-yl)-1,3,4-thiadiazole-2-amine]	< 1000 nM	< 1000 nM	–	–
c1ccc(Nc2cnc3ccc(Nc4nnc(C5CCCC5)s4)nc3c2)cc1 [Example 0200, N^2-(5-cyclopentyl-1,3,4-thiadiazol-2-yl)-N^7-phenyl-1,5-naphthyridine-2,7-diamine]	–	–	1000 to 10000 nM	1000 to 10000 nM
CC(C)c1cnnc(Nc2ccc3ncc(-c4ccccn4)cc3n2)c1 [Example 0369]	1000 to 10000 nM	< 1000 nM	–	–
CN(c1cnc2ccc(Nc3nnc(C4CCCC4)s3)nc2c1)C1CCOC1 (stereo not shown) [Example 0326, N^2-(5-cyclopentyl-1,3,4-thiadiazol-2-yl)-N^7-methyl-N^7-(tetrahydrofuran-3-yl)-1,5-naphthyridine-2,7-diamine]	< 1000 nM	< 1000 nM	–	–
Cc1cnnc(Nc2ccc3ncc(Nc4cncnc4)cc3n2)c1 [Example 0388, N^2-(5-methylpyridazin-3-yl)-N^7-(pyrimidin-5-yl)-1,5-naphthyridine-2,7-diamine]	1000 to 10000 nM	< 1000 nM	–	–
Cn1cc(-c2cnc3ccc(Nc4nnc(S(=O)(=O)Nc5ccccc5)s4)nc3c2)cn1 [Example 0176, 5-((7-(1-methyl-1H-pyrazol-4-yl)-1,5-naphthyridin-2-yl)amino)-N-phenyl-1,3,4-thiadiazole-2-sulfonamide]	–	–	< 1000 nM	< 1000 nM
CC(C)c1nnc(Nc2ccc3nccc(Nc4ccncn4)c3n2)s1 [Example 0007]	–	–	< 1000 nM	< 1000 nM
CC(C)c1nnc(Nc2ccc3nccc(-c4cccc(C(N)=O)c4)c3n2)s1 [Example 0287]	< 1000 nM	< 1000 nM	–	–
CC(C)c1nnc(Nc2ccc3nccc(-c4ccccn4)c3n2)s1 [Example 0281, 5-isopropyl-N-(8-(pyridin-2-yl)-1,5-naphthyridin-2-yl)-1,3,4-thiadiazole-2-amine]	1000 to 10000 nM	1000 to 10000 nM	–	–
Cn1cc(Nc2cnc3ccc(Nc4nnc(C5CCCC5)s4)nc3c2)cn1 [Example 0194]	–	–	1000 to 10000 nM	< 1000 nM
c1cc(Nc2cnc3ccc(Nc4nnc(C5CCCC5)s4)nc3c2)ccc1CN1CCOCC1 [Example 0221, N^2-(5-cyclopentyl-1,3,4-thiadiazol-2-yl)-N^7-(4-(morpholinomethyl)phenyl)-1,5-naphthyridine-2,7-diamine]	< 1000 nM	< 1000 nM	–	–
CC(C)c1cnnc(Nc2ccc3ncc(-c4cnn(CCCN5CCCC(C#N)C5)c4)cc3n2)c1 (stereo not shown) [Example 0379, 1-(3-(4-(6-((5-Isopropylpyridazin-3-yl)amino)-1,5-naphthyridin-3-yl)-1H-pyrazol-1-yl)propyl)piperidine-3-carbonitrile]	< 1000 nM	< 1000 nM	–	–

From patent publication US9783536B2, “Nitrogen-containing heterocyclic compound or salt thereof” (FUJIFILM Corporation, priority 2013, dated 2017)
